Experiments:
Experiment in all cases: Post-Emergent Test III (Wheat and Barley)
POLCO (wild buckwheat) = type: in vivo, Polygonum convolvulus; settings: for Visual Growth Reduction (%) 21 Days After Application, POLCO: postemergence
Method: (§1) Seeds of the desired test plant species were planted in Sun Gro MetroMix® 306 planting mixture, which typically has a pH of 6.0 to 6.8 and an organic matter content of about 30 percent, in plastic pots with a surface area of 103.2 square centimeters (cm^2). When required to ensure good germination and healthy plants, a fungicide treatment and/or other chemical or physical treatment was applied. The plants were grown for 7-36 days in a greenhouse with an approximate 14 h photoperiod which was maintained at about 18° C. during the day and 17° C. during the night. Nutrients and water were added on a regular basis and supplemental lighting was provided with overhead metal halide 1000-Watt lamps as necessary. The plants were employed for testing when they reached the second or third true leaf stage.
(§2) A weighed amount, determined by the highest rate to be tested, of each test compound was placed in a 25 mL glass vial and was dissolved in 4 mL of a 97:3 v/v mixture of acetone and DMSO to obtain concentrated stock solutions. […] The concentrated stock solutions obtained were diluted with 20 mL of an aqueous mixture containing acetone, water, isopropyl alcohol, DMSO, Agri-Dex crop oil concentrate, and X-77 surfactant in a 48:39:10:1.5:1.5:0.02 v/v ratio to obtain spray solutions containing the highest application rates. Additional application rates were obtained by serial dilution of 12 mL of the high rate solution into a solution containing 2 mL of 97:3 v/v mixture of acetone and DMSO and 10 mL of an aqueous mixture containing acetone, water, isopropyl alcohol, DMSO, Agri-Dex crop oil concentrate, and X-77 surfactant in a 48:39:10:1.5:1.5:0.02 v/v ratio to obtain ½×, ¼×, ⅛× and 1/16× rates of the high rate. Compound requirements are based upon a 12 mL application volume at a rate of 187 liters per hectare (L/ha). Formulated compounds were applied to the plant material with an overhead Mandel track sprayer equipped with 8002E nozzles calibrated to deliver 187 L/ha over an application area of 0.503 square meters at a spray height of 18 inches (43 cm) above the average plant canopy height. Control plants were sprayed in the same manner with the solvent blank.
(§3) The treated plants and control plants were placed in a greenhouse as described above and watered by subirrigation to prevent wash-off of the test compounds. After 21 dAYS, the condition of the test plants as compared with that of the untreated plants was determined visually and scored on a scale of 0 to 100 percent where 0 corresponds to no injury and 100 corresponds to complete kill and presented as indicated in Table A.
(§4) By applying the well-accepted probit analysis as described by J. Berkson in Journal of the American Statistical Society, 48, 565 (1953) and by D. Finney in “Probit Analysis” Cambridge University Press (1952), herbicidal injury of a specific compound at various rates can be used to calculate GR10, GR20, GR50, GR80 and GR90 values, which are defined as growth reduction factors that correspond to the effective dose of herbicide required to provide plant growth reduction (GR) of 10 percent, 20 percent, 50 percent, 80 percent and 90 percent, respectively. Probit analysis was applied to data collected from multiple dose rates of individual compounds utilizing the procedures explained in the following examples. The analysis of those dose rates is captured in the following tables.

KCHSC (kochia) = type: in vivo, Kochia scoparia
Summary of the method: (§5)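 Post-emergence foliar spray, 187 L/ha, serial ½×–1/16× rates; plants at 2nd–3rd true leaf; greenhouse ~18 °C day/17 °C night, 14 h light; subirrigated after treatment. Visual injury 0–100% at 21 d vs untreated; GR values by probit analysis over multiple rates.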

[1] = system: VERPE (Persian speedwell); type: in vivo, Veronica persica; settings: for Visual Growth Reduction (%) 21 Days After Application, VERPE: postemergence
Method: as §1, §2, §3, §4

PAPRH (common poppy) = type: in vivo, Papaver rhoeas; settings: for Visual Growth Reduction (%) 21 Days After Application, PAPRH: postemergence
Method: as §1, §2, §3, §4

[2] = system: LAMPU (purple deadnettle); type: in vivo, Lamium purpureum; settings: for Visual Growth Reduction (%) 21 Days After Application, LAMPU: postemergence
Method: as §1, §2, §3, §4

TRZSS = type: in vivo
Summary of the method: as §5

HORSS = type: in vivo
Summary of the method: as §5

SASKR (Russian thistle) = type: in vivo, Salsola tragus; settings: for Visual Growth Reduction (%) 21 Days After Application, SASKR: postemergence
Method: as §1, §2, §3, §4

APESV (windgrass) = type: in vivo, Apera spica-venti
Method: as §1, §2, §3, §4

[3] = effective dose for growth reduction of 50 percent, probit analysis
[4] = effective dose for growth reduction of 80 percent, probit analysis
[5] = effective dose for growth reduction of 90 percent, probit analysis
[6] = effective dose for growth reduction of 10 percent, probit analysis
[7] = effective dose for growth reduction of 20 percent, probit analysis

Nc1c(F)c(-c2ccc(C(F)(F)F)nc2)nc(C(=O)O)c1Cl [Compound 46, 4-amino-5-chloro-3-fluoro-6′-(trifluoromethyl)-[2,3′-bipyridine]-6-carboxylic acid]
Visual Growth Reduction (%) 21 Days After Application, POLCO (POLCO (wild buckwheat); 35 g ai/ha): E (45-59)
Visual Growth Reduction (%) 21 Days After Application, POLCO (POLCO (wild buckwheat); 70 g ai/ha): D (60-74)
Visual Growth Reduction (%) 21 Days After Application, POLCO (POLCO (wild buckwheat); 140 g ai/ha): D (60-74)
GR50, POLCO (POLCO (wild buckwheat); [3]): 27 g ai/ha
GR80, POLCO (POLCO (wild buckwheat); [4]): >140 g ai/ha
GR90, POLCO (POLCO (wild buckwheat); [5]): >140 g ai/ha
pest or weed control at 35 g/ha (KCHSC (kochia); Bassia scoparia, post-emergence, 504 h, 35 g ai/ha, postemergence, read-out: Visual Growth Reduction (%) 21 Days After Application, KCHSC): 60 to 74%
pest or weed control at 70 g/ha (KCHSC (kochia); Bassia scoparia, post-emergence, 504 h, 70 g ai/ha, postemergence, read-out: Visual Growth Reduction (%) 21 Days After Application, KCHSC): 60 to 74%
pest or weed control at 140 g/ha (KCHSC (kochia); Bassia scoparia, post-emergence, 504 h, 140 g ai/ha, postemergence, read-out: Visual Growth Reduction (%) 21 Days After Application, KCHSC): 85 to 94%
GR50, KCHSC (KCHSC (kochia); [3]): 29 g ai/ha
GR80, KCHSC (KCHSC (kochia); [4]): 104 g ai/ha
GR90, KCHSC (KCHSC (kochia); [5]): >140 g ai/ha
Visual Growth Reduction (%) 21 Days After Application, VERPE ([1]; 35 g ai/ha): A (95-100)
Visual Growth Reduction (%) 21 Days After Application, VERPE ([1]; 70 g ai/ha): A (95-100)
Visual Growth Reduction (%) 21 Days After Application, VERPE ([1]; 140 g ai/ha): A (95-100)
GR50, VERPE [1, 3]: 1 g ai/ha
GR80, VERPE [1, 4]: 2 g ai/ha
GR90, VERPE [1, 5]: 8 g ai/ha
Visual Growth Reduction (%) 21 Days After Application, PAPRH (PAPRH (common poppy); 35 g ai/ha): A (95-100)
Visual Growth Reduction (%) 21 Days After Application, PAPRH (PAPRH (common poppy); 70 g ai/ha): A (95-100)
Visual Growth Reduction (%) 21 Days After Application, PAPRH (PAPRH (common poppy); 140 g ai/ha): A (95-100)
GR50, PAPRH (PAPRH (common poppy); [3]): 2 g ai/ha
GR80, PAPRH (PAPRH (common poppy); [4]): 8 g ai/ha
GR90, PAPRH (PAPRH (common poppy); [5]): 16 g ai/ha
Visual Growth Reduction (%) 21 Days After Application, LAMPU ([2]; 35 g ai/ha): D (60-74)
Visual Growth Reduction (%) 21 Days After Application, LAMPU ([2]; 70 g ai/ha): D (60-74)
Visual Growth Reduction (%) 21 Days After Application, LAMPU ([2]; 140 g ai/ha): A (95-100)
GR50, LAMPU [2, 3]: 14 g ai/ha
GR80, LAMPU [2, 4]: 47 g ai/ha
GR90, LAMPU [2, 5]: 89 g ai/ha
pest or weed control at 35 g/ha (TRZSS; Triticum aestivum, post-emergence, 504 h, 35 g ai/ha, postemergence, read-out: Visual Growth Reduction (%) 21 Days After Application, TRZSS): 75 to 84%
pest or weed control at 70 g/ha (TRZSS; Triticum aestivum, post-emergence, 504 h, 70 g ai/ha, postemergence, read-out: Visual Growth Reduction (%) 21 Days After Application, TRZSS): 75 to 84%
pest or weed control at 140 g/ha (TRZSS; Triticum aestivum, post-emergence, 504 h, 140 g ai/ha, postemergence, read-out: Visual Growth Reduction (%) 21 Days After Application, TRZSS): 85 to 94%
GR10, TRZSS (TRZSS; [6]): 1 g ai/ha
GR20, TRZSS (TRZSS; [7]): 1 g ai/ha
pest or weed control at 35 g/ha (HORSS; Hordeum vulgare, post-emergence, 504 h, 35 g ai/ha, postemergence, read-out: Visual Growth Reduction (%) 21 Days After Application, HORSS): 60 to 74%
pest or weed control at 70 g/ha (HORSS; Hordeum vulgare, post-emergence, 504 h, 70 g ai/ha, postemergence, read-out: Visual Growth Reduction (%) 21 Days After Application, HORSS): 75 to 84%
pest or weed control at 140 g/ha (HORSS; Hordeum vulgare, post-emergence, 504 h, 140 g ai/ha, postemergence, read-out: Visual Growth Reduction (%) 21 Days After Application, HORSS): 85 to 94%
GR10, HORSS (HORSS; [6]): 1 g ai/ha
GR20, HORSS (HORSS; [7]): 3 g ai/ha
Visual Growth Reduction (%) 21 Days After Application, SASKR (SASKR (Russian thistle); 35 g ai/ha): E (45-59)
Visual Growth Reduction (%) 21 Days After Application, SASKR (SASKR (Russian thistle); 70 g ai/ha): D (60-74)
Visual Growth Reduction (%) 21 Days After Application, SASKR (SASKR (Russian thistle); 140 g ai/ha): D (60-74)
GR50, SASKR (SASKR (Russian thistle); [3]): 23 g ai/ha
GR80, SASKR (SASKR (Russian thistle); [4]): >140 g ai/ha
GR90, SASKR (SASKR (Russian thistle); [5]): >140 g ai/ha
pest or weed control at 35 g/ha (APESV (windgrass); Apera spica-venti, post-emergence, 504 h, 35 g ai/ha, postemergence, read-out: Visual Growth Reduction (%) 21 Days After Application, APESV): 60 to 74%
pest or weed control at 70 g/ha (APESV (windgrass); Apera spica-venti, post-emergence, 504 h, 70 g ai/ha, postemergence, read-out: Visual Growth Reduction (%) 21 Days After Application, APESV): 75 to 84%
pest or weed control at 140 g/ha (APESV (windgrass); Apera spica-venti, post-emergence, 504 h, 140 g ai/ha, postemergence, read-out: Visual Growth Reduction (%) 21 Days After Application, APESV): 85 to 94%
GR50, APESV (APESV (windgrass); [3]): 37 g ai/ha
GR80, APESV (APESV (windgrass); [4]): 78 g ai/ha
GR90, APESV (APESV (windgrass); [5]): 115 g ai/ha
